Measured values reported in patent US20140336182A1, “Aurora Kinase Modulators and Method of Use” (Amgen Inc., priority 2013, published 2014).
Where two headings read alike, the source gives them in different places.

Assays:
[1] = system: HCT116 xenografts, a human colon carcinoma model; test: HCT116 xenograft model, tumor growth inhibition; format: in vivo, athymic nude mice; conditions: mice, p.o.
Experimental: Compounds of the present invention were evaluated in HCT116 xenografts, a human colon carcinoma model. […] These cells were grown as subcutaneous xenografts in female HSD (Harlan Sprague Dawley) athymic nude mice. Mice were implanted subcutaneously with 2×10^6 cells in matrigel on day 0. Treatment was initiated on day 10 with compounds of the invention at the indicated dosage p.o for 2 consecutive-days per week (intermittent schedule, such as 2 days on—5 days off) or 7-days (continuous schedule) per week, for a selected number of weeks. For example, in one study, animals were dosed with selected compound samples BID on an intermittent dosing paradigm of two days on and then 5 days off per week, for four weeks (four dosing cycles) at 15, 7.5, and 3.75 mg/kg. Tumor growth inhibition and body weights were measured throughout the study and compared to the vehicle control group. All groups were provided nutritional supplements on a daily basis throughout the study to maintain body weight. Terminal neutrophil counts were taken at the end of this study. Measures were made by ANOVA followed by Scheffe post hoc test using StatView software v5.0.1.
10 Flasks containing a total of 7.68×10^8 HCT 116 tumor cells were harvested for tumor cell implantation. HCT 116 cells were re-suspended to a cell concentration of about 2×10^7 cells/ml in serum-free McCoys 5A media+50% matrigel. Cell viability was measured to be about 99.3%.
Female Athymic Nude mice approximately 14 weeks of age (Harlan Sprague Dawley) were used for the experiment. […] On Day 9, tumor-bearing mice were measured and randomized into five groups (n=10). […] During the dosing period, mouse tumor volumes were measured with a digital caliper and weighed twice per week. Tumor volumes were calculated as follows: Tumor Volume (mm^3)=[(W^2 X L)/2] where width (W) is defined as the smaller of the 2 measurements and length (L) is defined as the larger of the 2 measurements.

HeLa cells = test: HeLa cell 24 hr ploidy assay (DNA content); format: cell-based; conditions: 4N ploidy, average, read-out: 24h_4NPloidy EC50_IP (uM Avg)
Outline: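 HeLa cells (1×10^4/well, MEM+10% FBS) cultured 24 h, treated with serially diluted compounds (0.25% DMSO final), then fixed, permeabilized and stained with Hoechst 33342 (0.5 ug/ml). Imaging quantified % 4N and >4N cells; EC50 IP and EC50 transit derived from dose curves.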

AuroraA-TPX2 = target: T1, AuroraA-TPX2 (Homo sapiens, UniProt O14965); test: AuroraA-TPX2 Homogeneous Time Resolved Fluorescent (HTRF) kinase assay
T1 sequence (O14965 133-383 limits assumed): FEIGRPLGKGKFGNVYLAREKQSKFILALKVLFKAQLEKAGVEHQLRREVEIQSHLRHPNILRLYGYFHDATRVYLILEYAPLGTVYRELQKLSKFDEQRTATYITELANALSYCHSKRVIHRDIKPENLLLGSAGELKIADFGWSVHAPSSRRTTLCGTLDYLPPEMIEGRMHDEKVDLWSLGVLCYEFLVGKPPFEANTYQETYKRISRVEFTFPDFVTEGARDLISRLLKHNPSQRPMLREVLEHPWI
T1 sequence (Q9ULW0 1-43 partner limits assumed): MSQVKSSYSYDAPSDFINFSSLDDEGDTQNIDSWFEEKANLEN

AuroraB = target: T2, AuroraB (Homo sapiens, UniProt Q96GD4); test: AuroraB Homogeneous Time Resolved Fluorescent (HTRF) kinase assay; format: biochemical; conditions: average; read-out: AurB_IC50_IP (uM Avg)
T2 construct: 20 μL of AuroraB FL H is for a final volume of 41 μL; His
T2 sequence (Q96GD4 whole entry): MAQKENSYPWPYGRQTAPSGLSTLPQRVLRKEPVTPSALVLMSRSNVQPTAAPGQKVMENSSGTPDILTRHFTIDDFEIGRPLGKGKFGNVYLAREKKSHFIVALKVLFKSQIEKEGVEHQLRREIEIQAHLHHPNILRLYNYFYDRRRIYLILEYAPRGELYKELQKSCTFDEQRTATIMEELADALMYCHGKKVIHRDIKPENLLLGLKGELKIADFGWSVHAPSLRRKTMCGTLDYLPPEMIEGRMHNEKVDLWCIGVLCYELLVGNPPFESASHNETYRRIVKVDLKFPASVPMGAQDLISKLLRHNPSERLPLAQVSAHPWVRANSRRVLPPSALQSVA

[2] = read-out: AurA_IC50_IP (uM Avg), average

Molecule	EC50 (HeLa cells; Homo sapiens, HeLa, HeLa cells) [µM]	further results
COc1cnc2c(Sc3ccc(Nc4nnc(-c5ccccc5)c5ccccc45)cc3)ccnc2c1 [Example 207, N-(4-((7-(methyloxy)-1,5-naphthyridin-4-yl)thio)phenyl)-4-phenyl-1-phthalazinamine]	0.005	inhibition of tumor growth ([1]; 5.0 mg/kg 2-day dosing scheduling QD): 67%
COc1cnc2c(Oc3ccc(Nc4nnc(-c5ccc(Cl)cc5)c5ccccc45)cc3)ccnc2c1 [Example 160, 4-(4-chlorophenyl)-N-(4-((7-(methyloxy)-1,5-naphthyridin-4-yl)oxy)phenyl)-1-phthalazinamine]	–	inhibition of tumor growth ([1]; 3.75 mg/kg 2-day dosing scheduling QD): 86%; EC50 (HeLa cells; Homo sapiens, HeLa): 0.005 µM
COc1cnc2c(Oc3ccc(Nc4nnc(-c5ccc6c(c5)OCO6)c5ccccc45)cc3)ccnc2c1 [Example 165, 4-(1,3-benzodioxol-5-yl)-N-(4-((7-(methyloxy)-1,5-naphthyridin-4-yl)oxy)phenyl)-1-phthalazinamine]	0.006	inhibition of tumor growth ([1]; 2.5 mg/kg 2-day dosing scheduling BID): 63%
N-(5-(7-methoxy-1,5-naphthyridin-4-yloxy)pyridin-2-yl)-4-phenylphthalazin-1-amine [Example 54]	–	IC50 (AuroraA-TPX2; [2]): 0.176 µM; EC50 (HeLa cells; HeLa cells): 0.028 µM; IC50 (AuroraB): 0.02 µM
4-(4,5-dimethylthiophen-2-yl)-N-(4-(7-methoxy-1,5-naphthyridin-4-yloxy)phenyl)phthalazin-1-amine [Example 34]	–	IC50 (AuroraA-TPX2; [2]): 0.013 µM; EC50 (HeLa cells; HeLa cells): 0.062 µM; IC50 (AuroraB): 0.01 µM
N#Cc1cnc2c(Oc3ccc(Nc4nnc(-c5ccccc5)c5ccccc45)cc3)ccnc2c1 [Example 44, 8-(4-(4-phenylphthalazin-1-ylamino)phenoxy)-1,5-naphthyridine-3-carbonitrile]	> 1.2	–
COc1cnc2c(Oc3ccc(Nc4nnc(-c5ccc(C)nc5F)c5ccccc45)cc3)ccnc2c1 [compound 178]	0.027	–
COc1ccc(-c2nnc(Nc3ccc(Oc4ccnc5cc(OC)cnc45)cc3)c3ccccc23)cc1 [Example 37, N-(4-(7-methoxy-1,5-naphthyridin-4-yloxy)phenyl)-4-(4-methoxyphenyl)phthalazin-1-amine]	–	EC50 (HeLa cells; Homo sapiens, HeLa): 0.052 µM
COc1cnc2c(Oc3ccc(Nc4nnc(-c5ccc(Cl)c(C)c5)c5ccccc45)cc3)ccnc2c1 [compound 236]	0.011	–
COc1ccc(F)cc1-c1nnc(Nc2ccc(Oc3ccnc4cc(C(N)=O)ccc34)cc2)c2ccccc12 [Example 47, 4-(4-(4-(5-fluoro-2-methoxyphenyl)phthalazin-1-ylamino)phenoxy)quinoline-7-carb oxamide]	–	EC50 (HeLa cells; Homo sapiens, HeLa): > 1.2 µM
COc1cnc2c(Oc3ccc(Nc4nnc(-c5ccc6sccc6c5)c5ccccc45)cc3)ccnc2c1 [compound 142]	–	EC50 (HeLa cells; Homo sapiens, HeLa): 0.007 µM
COc1cnc2c(Oc3ccc(Nc4nnc(N5CCN6CCC[C@H]6C5)c5ccccc45)cc3)ccnc2c1 [compound 97]	–	EC50 (HeLa cells; Homo sapiens, HeLa): 0.026 µM
COCCOc1cc2nccc(Oc3ccc(Nc4nnc(-c5ccccc5)c5ccccc45)cc3)c2cc1OC [Example 393, N-(4-(6-Methoxy-7-(2-methoxyethoxy)quinolin-4-yloxy)phenyl)-4-phenylphthalazin-1-amine]	0.001	–
COc1ccc2nccc(Oc3ccc(Nc4nnc(-c5cc(C)cs5)c5ccccc45)cc3)c2c1 [compound 269]	0.016	–
COc1cnc2c(Oc3ccc(Nc4nnc(-c5ccc(F)c(OC)c5)c5ccccc45)cc3)ccnc2c1 [compound 180]	0.025	–
COc1cnc2c(Oc3ccc(Nc4nnc(-c5ccnc(Cl)c5)c5ccccc45)cc3)ccnc2c1 [compound 283]	0.343	–
Fc1cc(Nc2nnc(-c3ccc(Cl)cc3)c3ccccc23)ccc1Oc1ccnc2ccccc12 [compound 244]	0.04	IC50 (AuroraA-TPX2): 0.048 µM; IC50 (AuroraB): 0.003 µM
COc1ccc2c(Cc3ccc(Nc4nnc(-c5ccccc5)c5ccccc45)cc3)ccnc2c1 [Example 53, N-(4-((7-methoxyquinolin-4-yl)methyl)phenyl)-4-phenylphthalazin-1-amine]	0.105	IC50 (AuroraA-TPX2; [2]): 0.153 µM; IC50 (AuroraB): 0.003 µM
COc1ccc2c(Sc3ccc(Nc4nnc(-c5ccc(Cl)cc5)c5ccccc45)cc3)ccnc2c1 [compound 334]	0.018	–
N#Cc1ccc2c(Oc3ccc(Nc4nnc(-c5ccccc5)c5ccccc45)cc3)ccnc2c1 [compound 105]	–	EC50 (HeLa cells; Homo sapiens, HeLa): 0.036 µM
Clc1ccc(-c2nnc(Nc3ccc(Sc4ccnc5cccnc45)cc3)c3ccccc23)cc1 [Example 33, N-(4-(1,5-naphthyridin-4-ylthio)phenyl)-4-(4-chlorophenyl)phthalazin-1-amine]	–	EC50 (HeLa cells; HeLa cells): 0.002 µM
COc1cc2nccc(Oc3ccc(Nc4nnc(-c5ccccc5)c5ccccc45)cc3)c2cc1OC [compound 90]	–	EC50 (HeLa cells; Homo sapiens, HeLa): 0.013 µM
COc1cnc2c(Oc3ccc(Nc4nnc(-c5ccc(C)c(C)c5)c5ccccc45)cc3)ccnc2c1 [compound 192]	0.005	–
COc1cnc2c(Oc3ccc(Nc4nnc(-c5ccc(C)cc5)c5ccccc45)cc3)ccnc2c1 [compound 81]	–	EC50 (HeLa cells; Homo sapiens, HeLa): 0.008 µM
COc1cnc2c(Oc3ccc(Nc4nnc(-c5sccc5C)c5ccccc45)cc3)ccnc2c1 [compound 185]	0.241	–

More lines, main results first:

EC50 (HeLa cells; Homo sapiens, HeLa, HeLa cells) [µM]	Molecule	further results
0.004	COc1cnc2c(Sc3ccc(Nc4nnc(N5CCC(OC)CC5)c5ccccc45)cc3)ccnc2c1 [compound 520]	IC50 (AuroraA-TPX2): 0.027 µM; IC50 (AuroraB): 0.017 µM
0.006	Cc1ccc(-c2nnc(Nc3ccc(Sc4ccnc5cc(C6CC6)oc45)cc3)c3ccccc23)cc1N [compound 487]	–
0.012	Cc1csc(-c2nnc(Nc3ccc(Oc4ccnc5cccnc45)cc3)c3ccccc23)c1 [compound 447]	–
0.059	COc1cnc2c(Sc3ccc(Nc4nnc(OCC(F)(F)F)c5ccccc45)cc3)ccnc2c1 [compound 513]	–
0.024	c1ccc(-c2nnc(Nc3ccc(Sc4ccnc5ccncc45)cc3)c3ccccc23)cc1 [compound 425]	–
0.002	Clc1ccc(-c2nnc(Nc3ccc(Sc4ccnc5cc(C6CC6)oc45)cc3)c3ccccc23)cc1 [compound 486]	–
0.024	c1ccc2c(-c3ccc4c(c3)OCO4)nnc(Nc3ccc(Oc4ccnc5ccncc45)cc3)c2c1 [compound 424]	–
0.001	Cc1csc(-c2nnc(Nc3ccc(Sc4ccnc5cc[nH]c45)cc3)c3ccccc23)c1 [compound 464]	–
0.115	O=c1ccc2nccc(Oc3ccc(Nc4nnc(-c5ccc(Cl)cc5)c5ccccc45)cc3)c2[nH]1 [compound 569]	–
> 1.2	COCc1cc(-c2ccccc2)nnc1Nc1ccc(Oc2ccnc3cc(OC)cnc23)cc1 [compound 593]	–
0.049	COc1cc(OC)c2c(Sc3ccc(Nc4nnc(-c5ccc(Cl)cc5)c5ccccc45)cc3)ccnc2c1 [compound 436]	–
0.004	COc1cnc2c(Sc3ccc(Nc4nnc(N5CCC(Cl)CC5)c5ccccc45)cc3)ccnc2c1 [compound 527]	–
0.024	COCCOc1ccc(-c2nnc(Nc3ccc(Sc4ccnc5cc(OC)cnc45)cc3)c3ccccc23)cc1 [compound 474]	–
0.016	c1ccc2c(-c3ccc4c(c3)OCO4)nnc(Nc3ccc(Sc4ccnc5ccoc45)cc3)c2c1 [compound 467]	–
